Measurements taken from US10766917B2, “Nucleotides for the treatment of cancer” (IDENIX PHARMACEUTICALS LLC, priority 2015, dated 2020).

Tests used:
Test in all cases: In vitro inhibition, CellTiter-Glo (CTG) assay
Assay type in all cases: cell-based
[1] = system: HepG2
Description: (§1) Cells were grown in RPMI-1640 supplemented with L-Glutamine and 10% FBS of the following cell lines:
(§2) CCRF-CEM; HL-60; KG-1; CFPAC-1; MiaPACA-2; BxPC-3; HepG2; MDA-MB-231; HCT-116; A498; and NCI-H69
(§3) 18, 96 well plates of each cell line were seeded with the optimized number of cells per well in a total volume of 50 μper well. The plates were left overnight. Plate wells were seeded with 100 pt media for media control. The following day, cells were exposed to test compounds as described below. At the same time as drug exposure, a CTG assay was conducted on the 18th plate for the 0 hr count.
(§4) The compounds were added to cells and medium already on the plate to give desired final concentrations. 50 μL media were added to cell control wells, and 50 μL of mix added to vehicle control wells. 10 μM Doxorubicin was added to appropriate wells as control. Cells exposed to test compound were incubated at 37° C. for 72 hr followed by a CTG assay.
(§5) At the end of the 72 hr exposure period, plates were removed for a CellTiter-Glo (CTG) assay from a 37° C., 5% CO2 incubator and placed on the bench at room temperature for 30 mins. 100 μL of CellTiter-Glo reagent was added and mixed for 2 mins, followed by a further 10 min incubation at room temperature. Luminescence was recorded using Synergy 4.0.

[2] = system: MDA-MB-231
Description: as §1, §2, §3, §4, §5

[3] = system: HCT-116
Description: as §1, §2, §3, §4, §5

[4] = system: BxPC-3
Description: as §1, §2, §3, §4, §5

[5] = system: A498
Description: as §1, §2, §3, §4, §5

[6] = system: MiaPACA-2
Description: as §1, §2, §3, §4, §5

[7] = system: CFPAC-1
Description: as §1, §2, §3, §4, §5

[8] = system: NCI-H69
Description: as §1, §2, §3, §4, §5

[9] = Homo sapiens, HepG2, 72 h, 72 hr exposure
[10] = Homo sapiens, MDA-MB-231, 72 hr exposure
[11] = Homo sapiens, HCT-116, 72 h, 72 hr exposure
[12] = Homo sapiens, BXPC-3, 72 h, 72 hr exposure
[13] = Homo sapiens, A498, 72 h, 72 hr exposure
[14] = Homo sapiens, MIA PaCa-2, 72 h, 72 hr exposure
[15] = Homo sapiens, CFPAC-1, 72 h, 72 hr exposure
[16] = Homo sapiens, NCI-H69, 72 h, 72 hr exposure
[17] = Homo sapiens, NCI-H69, 72 hr exposure

SMILES: Nc1ccn([C@@H]2O[C@@H]3COP(=O)(O)O[C@H]3C2(F)F)c(=O)n1 [Compound 107, 1-[(4aR,6R,7aR)-7,7-difluoro-2-hydroxy-2-oxo-4,4a,6,7a-tetrahydrofuro[3,2-d][1,3,2]dioxaphosphinin-6-yl]-4-amino-pyrimidin-2-one]
- IC50 [1, 9]: < 1 µM
- IC50 [2, 10]: 10 to 100 µM
- IC50 [3, 11]: 1 to 10 µM
- IC50 [4, 12]: < 1 µM
- IC50 [5, 13]: 10 to 100 µM
- IC50 [6, 14]: < 1 µM
- IC50 [7, 15]: < 1 µM
- IC50 [8, 16]: 1 to 10 µM

SMILES: CC(C)(C)C(=O)SCCOP1(=O)OC[C@H]2O[C@@H](n3ccc(N)nc3=O)C(F)(F)[C@@H]2O1 (single isomer, unassigned) [104 (diastereomer 1)]
- IC50 [1, 9]: < 1 µM
- IC50 [2, 10]: 1 to 10 µM
- IC50 [3, 11]: 1 to 10 µM
- IC50 [4, 12]: < 1 µM
- IC50 ([5]; 72 hr exposure): 10 to 100 µM
- IC50 [6, 14]: < 1 µM
- IC50 [7, 15]: < 1 µM
- IC50 [8, 16]: 1 to 10 µM

SMILES: CC(C)OP(=O)(OC[C@H]1O[C@@H](n2ccc(N)nc2=O)C(F)(F)[C@@H]1O)OC(C)C [Compound 119]
- IC50 [1, 9]: 10 to 100 µM
- IC50 [2, 10]: 10 to 100 µM
- IC50 [3, 11]: 10 to 100 µM
- IC50 [4, 12]: 10 to 100 µM
- IC50 [5, 13]: 10 to 100 µM
- IC50 [6, 14]: 10 to 100 µM
- IC50 [7, 15]: 10 to 100 µM
- IC50 [8, 16]: 10 to 100 µM

SMILES: Nc1ccn([C@@H]2O[C@H](COP(=O)(OCc3ccc([N+](=O)[O-])o3)OCc3ccc([N+](=O)[O-])o3)[C@@H](O)C2(F)F)c(=O)n1 [Compound 114, [(2R,3R,5R)-5-(4-amino-2-oxo-pyrimidin-1-yl)-4,4-difluoro-3-hydroxy-tetrahydrofuran-2-yl]methyl bis[(5-nitro-2-furyl)methyl] phosphate]
- IC50 ([1]; Homo sapiens, HepG2, 72 hr exposure): < 1 µM
- IC50 [2, 10]: 10 to 100 µM
- IC50 ([3]; Homo sapiens, HCT-116, 72 hr exposure): 1 to 10 µM
- IC50 ([4]; Homo sapiens, BXPC-3, 72 hr exposure): < 1 µM
- IC50 ([5]; Homo sapiens, A498, 72 hr exposure): < 1 µM
- IC50 ([6]; Homo sapiens, MIA PaCa-2, 72 hr exposure): < 1 µM
- IC50 ([7]; Homo sapiens, CFPAC-1, 72 hr exposure): < 1 µM
- IC50 [8, 17]: 10 to 100 µM

SMILES: CC(C)(CO)C(=O)SCCOP(=O)(O)OC[C@H]1O[C@@H](n2ccc(N)nc2=O)C(F)(F)[C@@H]1O [Compound 118]
- IC50 [1, 9]: < 1 µM
- IC50 [2, 10]: 1 to 10 µM
- IC50 [3, 11]: < 1 µM
- IC50 [4, 12]: < 1 µM
- IC50 [5, 13]: < 1 µM
- IC50 [6, 14]: < 1 µM
- IC50 [7, 15]: < 1 µM
- IC50 [8, 16]: < 1 µM

SMILES: COC(=O)[C@H](CC(C)C)NP(=O)(N[C@@H](CC(C)C)C(=O)OC)OC[C@H]1O[C@@H](n2ccc(N)nc2=O)C(F)(F)[C@@H]1O [Compound 109, Methyl (2S)-2-[[[(2R,3R,5R)-5-(4-amino-2-oxo-pyrimidin-1-yl)-4,4-difluoro-3-hydroxy-tetrahydrofuran-2-yl]methoxy-[[(1S)-1-methoxycarbonyl-3-methyl-butyl]amino]phosphoryl]amino]-4-methyl-pentanoate]
- IC50 [1, 9]: 1 to 10 µM
- IC50 [2, 10]: 10 to 100 µM
- IC50 [3, 11]: 10 to 100 µM
- IC50 [4, 12]: 10 to 100 µM
- IC50 [5, 13]: 10 to 100 µM
- IC50 [6, 14]: 10 to 100 µM
- IC50 [7, 15]: 1 to 10 µM
- IC50 [8, 16]: 10 to 100 µM

SMILES: CC(C)OC(=O)[C@@H](C)NP1(=O)OC[C@H]2O[C@@H](n3ccc(N)nc3=O)C(F)(F)[C@@H]2O1 (single isomer, unassigned) [101 (diastereomer 2)]
- IC50 [1, 9]: 1 to 10 µM
- IC50 ([2]; 72 hr exposure): 10 to 100 µM
- IC50 ([3]; 72 hr exposure): 10 to 100 µM
- IC50 [4, 12]: 10 to 100 µM
- IC50 ([5]; 72 hr exposure): 10 to 100 µM
- IC50 [6, 14]: 1 to 10 µM
- IC50 [7, 15]: 1 to 10 µM
- IC50 ([8]; 72 hr exposure): 10 to 100 µM

SMILES: CC(C)OC(=O)[C@@H](C)NP1(=O)OC[C@H]2O[C@@H](n3ccc(N)nc3=O)C(F)(F)[C@@H]2O1 (single isomer, unassigned) [101 (diastereomer 1)]
- IC50 ([1]; 72 hr exposure): < 1 µM
- IC50 [2, 10]: 10 to 100 µM
- IC50 ([3]; 72 hr exposure): 1 to 10 µM
- IC50 ([4]; 72 hr exposure): 10 to 100 µM
- IC50 ([5]; 72 hr exposure): 1 to 10 µM
- IC50 ([6]; 72 hr exposure): < 1 µM
- IC50 ([7]; 72 hr exposure): < 1 µM
- IC50 [8, 17]: 10 to 100 µM

SMILES: COC(=O)[C@H](CCCCNP1(=O)OC[C@H]2O[C@@H](n3ccc(N)nc3=O)C(F)(F)[C@@H]2O1)NC(=O)OC(C)(C)C (single isomer, unassigned) [106 (diastereomer 1)]
- IC50 [1, 9]: < 1 µM
- IC50 [2, 10]: 10 to 100 µM
- IC50 ([3]; 72 hr exposure): 10 to 100 µM
- IC50 ([4]; 72 hr exposure): 10 to 100 µM
- IC50 [5, 13]: 10 to 100 µM
- IC50 [6, 14]: 1 to 10 µM
- IC50 [7, 15]: 1 to 10 µM
- IC50 [8, 16]: 10 to 100 µM

SMILES: CC(C)C(=O)OC[C@@H](C)NP1(=O)OC[C@H]2O[C@@H](n3ccc(N)nc3=O)C(F)(F)[C@@H]2O1 (single isomer, unassigned) [105 (diastereomer 1)]
- IC50 [1, 9]: < 1 µM
- IC50 [2, 10]: 10 to 100 µM
- IC50 ([3]; 72 hr exposure): < 1 µM
- IC50 [4, 12]: < 1 µM
- IC50 ([5]; 72 hr exposure): 10 to 100 µM
- IC50 [6, 14]: < 1 µM
- IC50 [7, 15]: < 1 µM
- IC50 ([8]; 72 hr exposure): 1 to 10 µM

SMILES: COC(=O)[C@H](CCCCNP1(=O)OC[C@H]2O[C@@H](n3ccc(N)nc3=O)C(F)(F)[C@@H]2O1)NC(=O)OC(C)(C)C (single isomer, unassigned) [106 (diastereomer 2)]
- IC50 ([1]; 72 hr exposure): < 1 µM
- IC50 ([2]; 72 hr exposure): 10 to 100 µM
- IC50 ([3]; 72 hr exposure): 1 to 10 µM
- IC50 ([4]; 72 hr exposure): 1 to 10 µM
- IC50 ([5]; 72 hr exposure): 10 to 100 µM
- IC50 ([6]; 72 hr exposure): 1 to 10 µM
- IC50 ([7]; 72 hr exposure): 1 to 10 µM
- IC50 ([8]; 72 hr exposure): 10 to 100 µM

SMILES: CC(C)(C)SSCCOP(=O)(NCc1ccccc1)OC[C@H]1O[C@@H](n2ccc(N)nc2=O)C(F)(F)[C@@H]1O (single isomer, unassigned) [111 (diastereomer 2)]
- IC50 ([1]; 72 hr exposure): < 1 µM
- IC50 ([2]; 72 hr exposure): 10 to 100 µM
- IC50 ([3]; 72 hr exposure): < 1 µM
- IC50 ([4]; 72 hr exposure): 1 to 10 µM
- IC50 ([5]; 72 hr exposure): 10 to 100 µM
- IC50 ([6]; 72 hr exposure): < 1 µM
- IC50 ([7]; 72 hr exposure): < 1 µM
- IC50 ([8]; 72 hr exposure): 10 to 100 µM

SMILES: CCCC(CCC)C(=O)Nc1ccn([C@@H]2O[C@@H]3COP(=O)(N[C@H](C)C(=O)OC(C)C)O[C@H]3C2(F)F)c(=O)n1 (single isomer, unassigned) [116 (diastereomer 1)]
- IC50 [1, 9]: 10 to 100 µM
- IC50 [2, 10]: 10 to 100 µM
- IC50 [3, 11]: 10 to 100 µM
- IC50 [4, 12]: 10 to 100 µM
- IC50 [5, 13]: 10 to 100 µM
- IC50 [6, 14]: 10 to 100 µM
- IC50 [7, 15]: 10 to 100 µM
- IC50 [8, 16]: 10 to 100 µM

SMILES: CCCC(CCC)C(=O)Nc1ccn([C@@H]2O[C@@H]3COP(=O)(N[C@H](C)C(=O)OC(C)C)O[C@H]3C2(F)F)c(=O)n1 (single isomer, unassigned) [116 (diastereomer 2)]
- IC50 ([1]; 72 hr exposure): 10 to 100 µM
- IC50 ([2]; 72 hr exposure): 10 to 100 µM
- IC50 ([3]; 72 hr exposure): 10 to 100 µM
- IC50 ([4]; 72 hr exposure): 10 to 100 µM
- IC50 ([5]; 72 hr exposure): 10 to 100 µM
- IC50 ([6]; 72 hr exposure): 10 to 100 µM
- IC50 ([7]; 72 hr exposure): 10 to 100 µM
- IC50 ([8]; 72 hr exposure): 10 to 100 µM

SMILES: CCOC(=O)[C@H](CC(C)C)NP(=O)(O)OC[C@H]1O[C@@H](n2ccc(N)nc2=O)C(F)(F)[C@@H]1O [Compound 115, [(2R,3R,5R)-5-(4-amino-2-oxo-pyrimidin-1-yl)-4,4-difluoro-3-hydroxy-tetrahydrofuran-2-yl]methoxy-N-[(1S)-1-ethoxycarbonyl-3-methyl-butyl]phosphonamidic acid]
- IC50 [1, 9]: < 1 µM
- IC50 [2, 10]: 10 to 100 µM
- IC50 [3, 11]: < 1 µM
- IC50 [4, 12]: 1 to 10 µM
- IC50 [5, 13]: 10 to 100 µM
- IC50 [6, 14]: < 1 µM
- IC50 [7, 15]: < 1 µM
- IC50 [8, 16]: 1 to 10 µM
